Data reported in article PMC10620772, “Design, synthesis, and biological evaluation of new pyrimidine-5-carbonitrile derivatives as novel anti-cancer, dual EGFR^WT/COX-2 inhibitors with docking studies” (RSC Advances, 2023).

How the values were obtained:
Experiment in all cases: NCI60 antitumor screening
Type in all cases: cell-based, human
[1] = tested on: RPMI-8226
[2] = tested on: HL-60(TB)
[3] = tested on: NCI-H226
[4] = tested on: UO-31; details: Homo sapiens; 10 μM single dose; UO-31 (renal cancer); read-out: growth inhibition percent (GI%)
[5] = tested on: HCT-15
[6] = tested on: HOP-62
[7] = tested on: OVCAR-5
[8] = tested on: HCC-2998
[9] = tested on: MCF7
[10] = tested on: SNB-19
[11] = tested on: NCI-H522
[12] = tested on: ACHN
[13] = tested on: SK-MEL-5
[14] = tested on: SW-620
[15] = tested on: K-562
[16] = tested on: HT29
[17] = tested on: IGROV1
[18] = tested on: NCI-H322M
[19] = tested on: U251
[20] = Homo sapiens, NCI-H322M, five-dose

For `N#Cc1c(-c2ccc(F)cc2)nc(SCc2ccccc2)nc1N1CCNCC1` [4e, 2-(Benzylthio)-4-(4-fluorophenyl)-6-(piperazin-1-yl) pyrimidine-5-carbonitrile], the GI50 ([1]; Homo sapiens, RPMI-8226, five-dose) was 3.99 µM, the CC50 ([1]; Homo sapiens, RPMI-8226, five-dose, read-out: LC50 (the source's name)) was 65.4 µM and the inhibition at 10 µM ([1]; Homo sapiens, 10 μM single dose, RPMI-8226 (leukaemia), read-out: growth inhibition percent (GI%)) was > 100%. The TGI ([1]; five-dose) was 17.50 µM, the GI50 ([2]; Homo sapiens, HL-60, five-dose) was 4.5 µM and the CC50 ([2]; Homo sapiens, HL-60, five-dose, read-out: LC50 (the source's name)) was 46.5 µM. The inhibition at 10 µM ([2]; Homo sapiens, 10 μM single dose, HL-60(TB) (leukaemia), read-out: growth inhibition percent (GI%)) was > 100%, the TGI ([2]; five-dose) was 17.30 µM and the GI50 ([3]; Homo sapiens, NCI-H226, five-dose) was 13.8 µM. The CC50 ([3]; Homo sapiens, NCI-H226, five-dose, read-out: LC50 (the source's name)) was 81.3 µM, the inhibition at 10 µM ([3]; Homo sapiens, 10 μM single dose, NCI-H226 (non-small cell lung cancer), read-out: growth inhibition percent (GI%)) was > 100% and the TGI ([3]; five-dose) was 33.40 µM. The inhibition at 10 µM [4] was > 100%, the GI50 ([5]; Homo sapiens, HCT-15, five-dose) was 5.05 µM and the CC50 ([5]; Homo sapiens, HCT-15, five-dose, read-out: LC50 (the source's name)) was 43.8 µM. The inhibition at 10 µM ([5]; Homo sapiens, 10 μM single dose, HCT-15 (colon cancer), read-out: growth inhibition percent (GI%)) was > 100%, the TGI ([5]; five-dose) was 17.50 µM and the GI50 ([6]; Homo sapiens, HOP-62, five-dose) was 13.2 µM. The CC50 ([6]; Homo sapiens, HOP-62, five-dose, read-out: LC50 (the source's name)) was 59.9 µM, the inhibition at 10 µM ([6]; Homo sapiens, 10 μM single dose, HOP-62 (non-small cell lung cancer), read-out: growth inhibition percent (GI%)) was > 100% and the TGI ([6]; five-dose) was 28.10 µM. For the same compound, the GI50 ([7]; Homo sapiens, OVCAR-5, five-dose) was 14.1 µM, the CC50 ([7]; Homo sapiens, OVCAR-5, five-dose, read-out: LC50 (the source's name)) was 54.2 µM and the inhibition at 10 µM ([7]; Homo sapiens, 10 μM single dose, OVCAR-5 (ovarian cancer), read-out: growth inhibition percent (GI%)) was > 100%. It also gave a TGI ([7]; five-dose) of 27.60 µM, a GI50 ([8]; Homo sapiens, HCC 2998, five-dose) of 1.76 µM and a CC50 ([8]; Homo sapiens, HCC 2998, five-dose, read-out: LC50 (the source's name)) of 5.89 µM. For the same compound, the inhibition at 10 µM ([8]; Homo sapiens, 10 μM single dose, HCC-2998 (colon cancer), read-out: growth inhibition percent (GI%)) was > 100%, the TGI ([8]; five-dose) was 3.22 µM and the GI50 ([9]; Homo sapiens, MCF7, five-dose) was 3.94 µM. The CC50 ([9]; Homo sapiens, MCF7, five-dose, read-out: LC50 (the source's name)) was 44.8 µM, the inhibition at 10 µM ([9]; Homo sapiens, 10 μM single dose, MCF7 (breast cancer), read-out: growth inhibition percent (GI%)) was > 100% and the TGI ([9]; five-dose) was 15.30 µM. The GI50 ([10]; Homo sapiens, SNB-19, five-dose) was 14.2 µM, the CC50 ([10]; Homo sapiens, SNB-19, five-dose, read-out: LC50 (the source's name)) was 60.6 µM and the inhibition at 10 µM ([10]; Homo sapiens, 10 μM single dose, SNB-19 (CNS cancer), read-out: growth inhibition percent (GI%)) was > 100%. The TGI ([10]; five-dose) was 29.30 µM, the GI50 ([11]; Homo sapiens, NCI-H522, five-dose) was 11.3 µM and the CC50 ([11]; Homo sapiens, NCI-H522, five-dose, read-out: LC50 (the source's name)) was 55.8 µM. The inhibition at 10 µM ([11]; Homo sapiens, 10 μM single dose, NCI-H522 (non-small cell lung cancer), read-out: growth inhibition percent (GI%)) was > 100%, the TGI ([11]; five-dose) was 25.10 µM and the GI50 ([12]; Homo sapiens, ACHN, five-dose) was 14 µM. The LC50 ([12]; Homo sapiens, ACHN, five-dose) was 54 µM, the inhibition at 10 µM ([12]; Homo sapiens, 10 μM single dose, ACHN (renal cancer), read-out: growth inhibition percent (GI%)) was > 100% and the TGI ([12]; five-dose) was 27.50 µM. The GI50 ([13]; Homo sapiens, SK-MEL-5, five-dose) was 15.7 µM, the CC50 ([13]; Homo sapiens, SK-MEL-5, five-dose, read-out: LC50 (the source's name)) was 54.5 µM and the inhibition at 10 µM ([13]; Homo sapiens, 10 μM single dose, SK-MEL-5 (melanoma), read-out: growth inhibition percent (GI%)) was > 100%. The TGI ([13]; five-dose) was 29.20 µM, the GI50 ([14]; Homo sapiens, SW-620, five-dose) was 3.38 µM and the CC50 ([14]; Homo sapiens, SW-620, five-dose, read-out: LC50 (the source's name)) was 40.9 µM. The inhibition at 10 µM ([14]; Homo sapiens, 10 μM single dose, SW-620 (colon cancer), read-out: growth inhibition percent (GI%)) was > 100%, the TGI ([14]; five-dose) was 13.10 µM and the GI50 ([15]; Homo sapiens, K562, five-dose) was 2.21 µM. For the same compound, the CC50 ([15]; Homo sapiens, K562, five-dose, read-out: LC50 (the source's name)) was 18.7 µM, the inhibition at 10 µM ([15]; Homo sapiens, 10 μM single dose, (leukaemia), read-out: growth inhibition percent (GI%)) was > 100% and the TGI ([15]; five-dose) was 5.42 µM. The inhibition at 10 µM ([16]; Homo sapiens, HT-29, 10 μM single dose, HT29 (colon cancer), read-out: growth inhibition percent (GI%)) was > 100%, the GI50 ([16]; Homo sapiens, HT-29, five-dose) was 3.3 µM and the CC50 ([16]; Homo sapiens, HT-29, five-dose, read-out: LC50 (the source's name)) was 36.6 µM. The TGI ([16]; five-dose) was 10.50 µM, the inhibition at 10 µM ([17]; Homo sapiens, IGROV-1, 10 μM single dose, IGROV1 (ovarian cancer), read-out: growth inhibition percent (GI%)) was > 100% and the GI50 ([17]; Homo sapiens, IGROV-1, five-dose) was 14.7 µM. It also gave a CC50 ([17]; Homo sapiens, IGROV-1, five-dose, read-out: LC50 (the source's name)) of 56.7 µM, a TGI ([17]; five-dose) of 28.90 µM and a GI50 [18, 20] of 14.3 µM. For the same compound, the LC50 (50% lethal concentration) [18, 20] was 54.2 µM, the inhibition at 10 µM ([18]; Homo sapiens, 10 μM single dose, NCI-H322M (non-small cell lung cancer), read-out: growth inhibition percent (GI%)) was > 100% and the TGI ([18]; five-dose) was 27.90 µM. For the same compound, the inhibition at 10 µM ([19]; Homo sapiens, U-251, 10 μM single dose, U251 (CNS cancer), read-out: growth inhibition percent (GI%)) was > 100%, the GI50 ([19]; Homo sapiens, U-251, five-dose) was 4.36 µM and the CC50 ([19]; Homo sapiens, U-251, five-dose, read-out: LC50 (the source's name)) was 44.6 µM. For the same compound, the TGI ([19]; five-dose) was 16.10 µM.
